This is an account of results in patent US20250302813A1, “RECOMBINANT METHIONINASE IN THE TREATMENT OF CANCER” (ANTICANCER INC, priority 2024, published 2025).

Like-named read-outs stand apart in the source and are kept apart here.

For data set [1] the following is noted: patients; oral regorafenib; cited from earlier work.
Data set [2] relates to human colorectal cancer cell line. Particulars: in vitro; cited from earlier work.
The test system of data set [3] is HCT-116 human colon cancer cell line. Description: Cell viability testing of HCT-116 cells (Cell Counting Kit-8, WST-8 reagent). The format is cell-based. Particulars: for IC50: Homo sapiens. The procedure: Cell culture: The HCT-116 human colon cancer cell line was acquired from the American Type Culture Collection (Manassas, VA, USA). The cells were grown in Dulbecco's […] medium (DMEM) with 10% fetal bovine serum and 100 IU/ml of penicillin/streptomycin.
Cell viability testing: HCT-116 cells were cultivated at subconfluence overnight in Dulbecco's modified Eagle's medium in 96-well plates (1.0×10^3 cells per well). The following day, HCT-116 cells were treated with concentrations of rMETase ranging from 0.125 to 8 U/ml or regorafenib ranging from 0.25 μM to 16 μM. Regorafenib was purchased from MedChemExpress (Monmouth Junction, NJ, USA). After 72 h of treatment, cell viability was assessed using the Cell Counting Kit-8 (Dojindo Laboratory, Kumamoto, Japan) with the WST-8 reagent.
ImageJ version 1.53 (National Institutes of Health, Bethesda, MD, USA) was applied to calculate IC50 values and sensitivity curves. After calculating the half-maximal inhibitory concentration (IC50) for rMETase and regorafenib, the […]. concentrations of both drugs were used to determine the synergistic efficacy of the combination of the drugs. Finally, the IC50 study was repeated for regorafenib on HCT-116 cells treated in combination with the IC50 concentration of rMETase to examine whether methionine restriction increased the efficacy of regorafenib. Each experiment was carried out in triplicate.
Statistics: GraphPad Prism 9.4.0 (GraphPad Software, Inc., San Diego, CA, USA) was used to conduct all statistical analyses. Tukey's multiple comparison test was performed for the parametric test of comparison between groups. All data are presented as the mean and standard deviation. The significance level was p≤0.05.

`CNC(=O)c1cc(Oc2ccc(NC(=O)Nc3ccc(Cl)c(C(F)(F)F)c3)c(F)c2)ccn1` [regorafenib, 4-[4-[[4-chloro-3-(trifluoromethyl)phenyl]carbamoylamino]-3-fluorophenoxy]-N-methylpyridine-2-carboxamide]: the “Time to appearance of toxicity after the start of treatment (severe skin rash, diarrhea, hypertension, fatigue)” value in data set [1] was 3 to 4 days. In addition, the “Increase of intracellular S-adenosyl-L-methionine (SAM) level compared to the control” value in data set [2] is on record as 34.5%. In addition, the IC50 is 1.46 µM in data set [3] (HCT-116, 72 h, addition of rMETase at 0.61 U/ml (its IC50), 72 h, WST-8, read-out: IC50 of regorafenib in combination with rMETase); 2.2 µM in data set [3] (HCT-116, 72 h, regorafenib alone, 72 h treatment, WST-8, read-out: IC50 of regorafenib on HCT-116 cells); 2.26 µM in data set [3] (HCT-116, regorafenib alone, read-out: IC50 of regorafenib alone on HCT-116 cells (printed in U/ml)).
As for “rMETase: recombinant methioninase produced by fermentation of recombinant Escherichia coli transformed with the methioninase gene from Pseudomonas putida”, in data set [3] (rMETase alone, 72 h treatment, WST-8), the “IC50 of rMETase on HCT-116 cells” value was 0.61 U/ml.
